Data reported in PMC9928118, “Funneling modulatory peptide design with generative models: Discovery and characterization of disruptors of calcineurin protein-protein interactions” (PLOS Computational Biology, 2023).

Tested on: GST-tagged Cn
Test: PEPperPRINT peptide microarray binding assay with GST-tagged Cn
Source text: We then estimated in-silico the binding strength of the various peptides to Cn by template-based docking followed by flexible backbone refinement using Modeller and PepCrawler (Figs 4 and S4). In parallel, we performed a medium-throughput qualitative binding assay using a PEPperPRINT peptide microarray to evaluate the direct binding of Cn to selected peptides (Figs 4 and S5, S3 Data).
Fig 4 Medium-throughput filtering by structural modeling and microarray screening. (a) Depiction of the structural modeling protocol: after alignment to the known PxIxIT binding site, an efficient flexible backbone structure refinement algorithm is applied to estimate the docking energy. […] (c) Coefficients of the equivalent single-site model fitted by sparse linear regression, shown in weight logo representation. […] Colors indicate physical property (black = hydrophobic, red = negatively charged, etc.). (d) Per-gene distribution of docking scores across natural fragments (lower is better). […] (e) Overview of the microarray screening. Peptides are printed on the chip (two circles per peptide). After pouring of Cn and subsequent washing, fluorescent-tagged, a Cn-targeting antibody is overlaid and an image is taken. Fluorescent spots indicate strong Cn binders. (f) Scatter plot of the sequence likelihood (normalized by length, higher is better) against fluorescence level (higher is better, see Methods for details of the data analysis).
In parallel, selected peptides were tested for Cn binding on a chip microarray (PEPperPRINT). 786 peptides were printed on the chip and were incubated with GST-tagged Cn overnight at 4°C. Following extensive washing, binding was detected by applying a fluorescently labeled (Alexa-Fluor 647) GST antibody. […] The experiment was repeated five times, and Z-normalized fluorescence levels were determined following post-processing of the raw data (Methods, S5A, S5B and S5C Fig).
The peptide array was prepared as a custom array pepper chip (PEPperPRINT). For binding detection, 1mg/ml GST-tagged Cn was incubated overnight on the microarray at 4°C. Following extensive washing, fluorescently labeled (Alexa-Fluor 647) GST-antibody. […] The experiment was repeated five times. Each scan was analyzed as follows: a grid was overlaid using the border HA markers to determine regions of interest (ROI) for each peptide (two ROIs per peptide) and the logarithm of the average fluorescence intensity was computed for each ROI. […] To remove spatial artifacts, a position-dependent baseline fluorescence was fitted using a second-order polynomial, and subtracted to the fluorescence. Fluorescence levels were next averaged over the two ROI for each peptide and Z-normalized. […] The Z-scores were averaged over the five repetitions to yield one fluorescence score per peptide.

[1] = max over the chip locations listed for the peptide (two spots)
[2] = mean over the chip locations listed for the peptide (two spots)
[3] = GST-tagged Cn, max over the chip spots listed under Location on chip
[4] = GST-tagged Cn, mean over the chip spots listed under Location on chip
[5] = GST-tagged Cn, max over the spots on the chip (two locations)
[6] = GST-tagged Cn, mean over the spots on the chip (two locations)
[7] = max over the spots listed under Location on chip
[8] = mean over the spots listed under Location on chip
[9] = GST-tagged Cn, max over the chip locations
[10] = GST-tagged Cn, mean over the chip locations
[11] = GST-tagged Cn, max over the spots named in Location on chip
[12] = GST-tagged Cn, mean over the spots named in Location on chip

## KKMSPPCIVVSPPEED [SeqRBMlowT_306]
[1]
  Chip Fluorescence (max): 6.125
[2]
  Chip Fluorescence (mean): 1.9169

## TFWTNPQFRITLEEED [SeqRBMlowT_658]
[1]
  Chip Fluorescence (max): 4.839
[2]
  Chip Fluorescence (mean): 1.41

## ASEAAPTINIDFAPNP [SeqRBMlowT_1832]
[1]
  Chip Fluorescence (max): 4.3558
[2]
  Chip Fluorescence (mean): -0.1882

## TFWTNPQYKIKLEDPD [SeqRBMlowT_629]
[3]
  Chip Fluorescence (max): 0.8637
[4]
  Chip Fluorescence (mean): -0.07489

## TFWTNPQYRVKLEEPD [SeqRBMlowT_2230]
[5]
  Chip Fluorescence (max): 1.125
[6]
  Chip Fluorescence (mean): -0.4829

## TFWSNPQYFVTLLESD [SeqRBM_6656]
[7]
  Chip Fluorescence (max): 3.032
[8]
  Chip Fluorescence (mean): 1.049

## QLRDIFQGRMITILTP [Seqshuffled_3466]
[3]
  Chip Fluorescence (max): 0.7348
[4]
  Chip Fluorescence (mean): -0.3913

## ASALSPRIEITPSHEL [SeqNFATC1_Alligator_mississippiensis]
[7]
  Chip Fluorescence (max): 3.085
[8]
  Chip Fluorescence (mean): 0.192

## TFWTNPQFRITVTDPD [SeqRBMlowT_669]
[7]
  Chip Fluorescence (max): 2.934
[8]
  Chip Fluorescence (mean): 1.6891

## TFWSNPQFDIALDDDD [SeqRBM_1928]
[1]
  Chip Fluorescence (max): 3.897
[2]
  Chip Fluorescence (mean): 1.75

## NVPKGIRFRRTYLAIP [Seqshuffled_5577]
[3]
  Chip Fluorescence (max): 0.7584
[4]
  Chip Fluorescence (mean): -1.743

## QGIYQDLGGINNFSIS [SeqCRZ1_Pseudogymnoascus_sp]
[9]
  Chip Fluorescence (max): -0.4093
[10]
  Chip Fluorescence (mean): -1.098

## VKLVIIQVRSASVDAN [SeqRBM_6437]
[9]
  Chip Fluorescence (max): -0.5934
[10]
  Chip Fluorescence (mean): -1.618

## GGESQPGIVVHVCEED [SeqRBMlowT_2505]
[11]
  Chip Fluorescence (max): 1.711
[12]
  Chip Fluorescence (mean): 0.4381

## WAGCDTWVFSIWRWIA [Seqrandom_10000]
[1]
  Chip Fluorescence (max): 3.486
[2]
  Chip Fluorescence (mean): 0.3128

## LNLKIPEVRLNIISAL [SeqRBMlowT_1835]
[9]
  Chip Fluorescence (max): 0.09786
[10]
  Chip Fluorescence (mean): -0.5761

## PDEAQPGIVVHVCELP [SeqRBMlowT_301]
[5]
  Chip Fluorescence (max): 1.28
[6]
  Chip Fluorescence (mean): 0.6681

## FNSWRQVPLWSPEFHT [SeqRBM_9832]
[5]
  Chip Fluorescence (max): 1.192
[6]
  Chip Fluorescence (mean): 0.531

## KKDVPPKILIEPPREF [SeqRBM_6642]
[3]
  Chip Fluorescence (max): 0.9085
[4]
  Chip Fluorescence (mean): -0.7336

## RSYDVPVFLFTYLPNP [SeqRBM_7048]
[1]
  Chip Fluorescence (max): 4.515
[2]
  Chip Fluorescence (mean): 0.06008

## PSALIPSLSMDPSMSE [SeqRBM_6067]
[1]
  Chip Fluorescence (max): 4.106
[2]
  Chip Fluorescence (mean): 0.6019

## SSLECPHVQVTVSGQR [SeqRBM_6881]
[11]
  Chip Fluorescence (max): 1.51
[12]
  Chip Fluorescence (mean): 0.9297

## TFWTNPQFRLTLLSPD [SeqRBMlowT_9173]
[5]
  Chip Fluorescence (max): 1.238
[6]
  Chip Fluorescence (mean): 0.4236

## FSGNQPAIVVHTCEDP [SeqRBM_2445]
[9]
  Chip Fluorescence (max): 0.03592
[10]
  Chip Fluorescence (mean): -0.8656

## QFKKSNLLGFMAASGD [Seqshuffled_9600]
[5]
  Chip Fluorescence (max): 0.9897
[6]
  Chip Fluorescence (mean): 0.1872

## TFWTNPQIKLSLTEKD [SeqCAPN11_Camelus_ferus]
[7]
  Chip Fluorescence (max): 3.072
[8]
  Chip Fluorescence (mean): 1.377

## RNPGQALLTLEGHSAS [SeqRBMlowT_5868]
[3]
  Chip Fluorescence (max): 0.6524
[4]
  Chip Fluorescence (mean): -0.2838

## KAYMSPFMQFVDAGRR [SeqSFB3_Nasonia_vitripennis]
[11]
  Chip Fluorescence (max): 1.597
[12]
  Chip Fluorescence (mean): -0.04342

## RAYINPFMQFIDGGRF [SeqRBMlowT_3663]
[3]
  Chip Fluorescence (max): 0.6841
[4]
  Chip Fluorescence (mean): -0.1666

## TFHTNPQYRVNIEDQD [SeqRBM_8967]
[11]
  Chip Fluorescence (max): 1.436
[12]
  Chip Fluorescence (mean): 0.08694

## ERWSIGFGDMFCNQFK [Seqrandom_9989]
[7]
  Chip Fluorescence (max): 2.7221
[8]
  Chip Fluorescence (mean): 0.53

## TFWTNPQYRITLEEED [SeqRBMlowT_1109]
[7]
  Chip Fluorescence (max): 3.384
[8]
  Chip Fluorescence (mean): 0.265

## TFWTNPQYRITLEDVD [SeqRBMlowT_4237]
[5]
  Chip Fluorescence (max): 1.081
[6]
  Chip Fluorescence (mean): 0.5254

## ATPGTFPRGDGAHKKQ [SeqRBMlowT_5886]
[1]
  Chip Fluorescence (max): 4.111
[2]
  Chip Fluorescence (mean): 0.8256

## TFWTNPQYRITLEEPD [SeqRBMlowT_212]
[5]
  Chip Fluorescence (max): 1.104
[6]
  Chip Fluorescence (mean): 0.3317

## IKLIIWNHNISNHGTY [SeqRBM_5872]
[1]
  Chip Fluorescence (max): 8.925
[2]
  Chip Fluorescence (mean): 1.809

## SQLAAPAINIDFAPTN [SeqRBMlowT_5061]
[9]
  Chip Fluorescence (max): 0.08477
[10]
  Chip Fluorescence (mean): -0.8412

## AQMAPPAINIDFAPTN [SeqRBMlowT_7215]
[3]
  Chip Fluorescence (max): 0.4327
[4]
  Chip Fluorescence (mean): -0.8945

## RTPGTALLTLRGHKKQ [SeqRBMlowT_5808]
[9]
  Chip Fluorescence (max): 0.1527
[10]
  Chip Fluorescence (mean): -0.8232

## SKLMCVTLAIGSLSTS [SeqRBM_2514]
[5]
  Chip Fluorescence (max): 1.101
[6]
  Chip Fluorescence (mean): -0.2904

## ARPPNAAFVLDQETTY [Seqshuffled_9990]
[5]
  Chip Fluorescence (max): 1.0396
[6]
  Chip Fluorescence (mean): 0.6258

## TFWTNPQFKVKLEEVD [SeqRBMlowT_284]
[5]
  Chip Fluorescence (max): 1.062
[6]
  Chip Fluorescence (mean): -0.1705

## PAGAGVGIVITVTEAE [SeqRBMlowT_166]
[7]
  Chip Fluorescence (max): 3.117
[8]
  Chip Fluorescence (mean): 1.082

## VAQAFNVDGNCTQYWN [Seqrandom_9942]
[1]
  Chip Fluorescence (max): 6.979
[2]
  Chip Fluorescence (mean): 1.446

## TEWNNPQQIVGPTEGD [SeqRBM_3582]
[9]
  Chip Fluorescence (max): 0.1516
[10]
  Chip Fluorescence (mean): -1.002

## TFWMNPQYKIKLEEPD [SeqRBMlowT_4687]
[11]
  Chip Fluorescence (max): 1.8162
[12]
  Chip Fluorescence (mean): 0.005772

## RKDSAVTQWGFSNLWA [Seqrandom_9950]
[1]
  Chip Fluorescence (max): 4.744
[2]
  Chip Fluorescence (mean): 1.033

## KAYMCPSMQFIDGGRR [SeqRBMlowT_9264]
[5]
  Chip Fluorescence (max): 1.2267
[6]
  Chip Fluorescence (mean): -0.003433

## ADEAPPEITITPAELP [SeqRBMlowT_445]
[1]
  Chip Fluorescence (max): 5.264
[2]
  Chip Fluorescence (mean): 0.1816

## TFNTNPQYTIQVVWPD [SeqRBM_7110]
[9]
  Chip Fluorescence (max): -0.1833
[10]
  Chip Fluorescence (mean): -1.179

## ATSFVPQLASTLFSLW [SeqRBM_1383]
[3]
  Chip Fluorescence (max): 0.6271
[4]
  Chip Fluorescence (mean): -0.8819

## KHATSPRINITQTSTL [SeqRBM_2048]
[3]
  Chip Fluorescence (max): 0.7747
[4]
  Chip Fluorescence (mean): -0.7747

## HSKSSPKLSISSPVHH [SeqRBMlowT_1628]
[7]
  Chip Fluorescence (max): 3.1562
[8]
  Chip Fluorescence (mean): 1.038

## KAYINPSMVFIEGGRR [SeqRBM_7863]
[7]
  Chip Fluorescence (max): 2.964
[8]
  Chip Fluorescence (mean): 0.9132

## TFWSNPQFKIKLEEPD [SeqRBMlowT_2229]
[5]
  Chip Fluorescence (max): 1.024
[6]
  Chip Fluorescence (mean): -0.06201

## HVSSSPDVTLKIPQHR [SeqRBMlowT_2187]
[3]
  Chip Fluorescence (max): 0.8915
[4]
  Chip Fluorescence (mean): -0.5849

## RAYINPFMQFQDGGQR [SeqRBMlowT_1515]
[11]
  Chip Fluorescence (max): 1.533
[12]
  Chip Fluorescence (mean): -0.1627

## RNPGQPLLELEGHSAP [SeqRBMlowT_7742]
[1]
  Chip Fluorescence (max): 5.135
[2]
  Chip Fluorescence (mean): 0.4912

## ADEAIPEITITPAELP [SeqRBMlowT_424]
[7]
  Chip Fluorescence (max): 2.999
[8]
  Chip Fluorescence (mean): 0.8947

## ATSGTFPQTEGSHKKQ [SeqRBMlowT_5854]
[11]
  Chip Fluorescence (max): 1.785
[12]
  Chip Fluorescence (mean): -0.4136

## TFWTNPQYRLKLLEED [SeqCAPN11_Tupaia_chinensis]
[1]
  Chip Fluorescence (max): 4.428
[2]
  Chip Fluorescence (mean): 0.5574

## LKDQFPKVRLNIIDAP [SeqRBM_543]
[7]
  Chip Fluorescence (max): 2.925
[8]
  Chip Fluorescence (mean): 0.6756

## FFHHGLSCCKARQAEY [Seqrandom_9955]
[1]
  Chip Fluorescence (max): 3.699
[2]
  Chip Fluorescence (mean): 0.5277

## KKMSPPCISVDPPDEL [SeqCACNA1H_Nothobranchius_rachovii]
[5]
  Chip Fluorescence (max): 1.26
[6]
  Chip Fluorescence (mean): -0.004401

## HVEDTTEFALQRPSND [Seqshuffled_9422]
[11]
  Chip Fluorescence (max): 1.612
[12]
  Chip Fluorescence (mean): 0.1762

## TFWTNPQFRIKLEDPD [SeqRBMlowT_91]
[7]
  Chip Fluorescence (max): 2.652
[8]
  Chip Fluorescence (mean): 0.4239
